According to patent US9060949B2, “Menthyl carbamate compounds as skin and/or hair lightening actives” (SYMRISE AG, priority 2010, dated 2015):
pIC50: −log10 of the molar value. Like-named read-outs stand apart in the source and are kept apart here.

What was measured:
[1] = test system: B16V mouse melanoma cells; test: Depigmenting effect on melanoma cell cultures (inhibition of pigmentation); format: cell-based; conditions: read-out: IC 50 (concentration at which pigmentation is inhibited by 50%)
Description: B16V mouse melanoma cells are disseminated in a 96-well microtitre plate in a concentration of 5×10^3 cells/well. After cultivation for 24 h at 37° C. and 5% CO2 in RPMI medium, enriched with 10% foetal calf serum, various concentrations of the test substances and 0.3 mM tyrosine and 10 nM α-MSH (α-melanocyte stimulating hormone) are added and incubated for a further 96 h. The maximum concentration of the test substances used corresponds to 0.1 times the value of the IC20 value of the cytotoxicity assay. Standards are incubated with kojic acid in concentrations of 0.01 mM, 0.1 mM and 1 mM in addition to tyrosine and α-MSH. Only tyrosine and α-MSH are added to the controls. After incubation, sodium lauryl sulfate and sodium hydroxide solution (final concentrations: 1 mM and 1 M respectively) are added to the culture medium and the absorption (A) is measured after 3 h at 400 nm.
The inhibition of pigmentation in the presence of the test compounds or kojic acid was calculated using the following equation: Inhibition of pigmentation(%)=100−[(Atest compound/Acontrol)×100] wherein Atest compound=absorption of the wells with test substance and with cells Acontrol=absorption of the wells without test substance, but with cells
From the inhibition of pigmentation (%) in a series of dilutions of test compounds, the IC50 for each test compound is calculated. This is the concentration of a test compound at which pigmentation is inhibited by 50%.

Pigmented pig skin = test: Depigmenting effect on ex vivo skin (melanin granules, Fontana-Masson staining, image analysis); format: cell-based; conditions: 1 wt.% in O/W emulsion applied topically, 6 days, vs. emulsion without test compound
Description: Pigmented pig skin was excised from animals (slaughtered for meat production; the pig skin model included the subcutis fat layer as described in EP 1 939 27), cut into 4×4×3 mm pieces (length×width×height) and placed in culture at the air-liquid interface on a sterilized cotton pad soaked with 5 ml of customized DMEM (Dulbecco's Modified Eagle Medium). Assays were started 24 h after sample acclimatization at 37° C., 5% CO2. O/W emulsions (as described in more detail below) without (=control) and with the test compounds, respectively, were applied topically and incubated for 6 days. Histological sections were prepared and melanin granules stained by Fontana-Masson technique. The granules were quantified by image analysis.
The O/W emulsions used had the following composition:
Phases A and B are heated to 70° C. separately. Pemulen TR1 as well as Ultrez-21 are dispersed in phase B when heated to 70° C. Phase B/C is added to phase A by mixing with an Ultra Turrax, followed by emulsifying. Phase D is slowly added to phase A/B/C using a paddle mixer and a pH 5.5-6 is adjusted. The formulation is cooled down while mixing with a paddle mixer. Phase E is prepared by dissolving one or more compounds of formula (I) in Hydrolite-5. Subsequently, phase E is added to the mixture of phase A-D.

[2] = B16V cells, 0.3 mM tyrosine and 10 nM α-MSH, 96 h incubation, absorption at 400 nm

Row | Structure (SMILES) | pIC50 [1, 2] | Melanin score vs. Control (Pigmented pig skin) [%] | pIC50 ([1]; 96 h)
1 | CCNC(=O)O[C@@H]1C[C@H](C)CC[C@H]1C(C)C [BIO1151, Ethyl-carbamic acid (1R,2S,5R)-2-isopropyl-5-methyl-cyclohexyl ester] | 4.39 | −44 | 
2 | COCCCNC(=O)O[C@@H]1C[C@H](C)CC[C@H]1C(C)C [BIO1155, (3-Methoxy-propyl)-carbamic acid (1R,2S,5R)-2-isopropyl-5-methyl-cyclohexyl ester] | 4.66 | −46 | 
3 | CC(C)CNC(=O)O[C@@H]1C[C@H](C)CC[C@H]1C(C)C [BIO1159, Isobutyl-carbamic acid (1R,2S,5R)-2-isopropyl-5-methyl-cyclohexyl ester] | 4.00 |  | 
4 | CNC(=O)O[C@@H]1C[C@H](C)CC[C@H]1C(C)C [BIO1185, Methyl-carbamic acid (1R,2S,5R)-2-isopropyl-5-methyl-cyclohexyl ester] | 3.96 |  | 
5 | CC(C)[C@@H]1CC[C@@H](C)C[C@H]1OC(=O)NC1CCCCC1 [BIO1266, Cyclohexyl-carbamic acid (1R,2S,5R)-2-isopropyl-5-methyl-cyclohexyl ester] | 4.73 |  | 
6 | CCCCNC(=O)O[C@@H]1C[C@H](C)CC[C@H]1C(C)C [BIO1267, Butyl-carbamic acid (1R,2S,5R)-2-isopropyl-5-methyl-cyclohexyl ester] | 3.30 |  | 
7 | CC(C)OCCCNC(=O)O[C@@H]1C[C@H](C)CC[C@H]1C(C)C [BIO1268, (3-Isopropoxy-propyl)-carbamic acid (1R,2S,5R)-2-isopropyl-5-methyl-cyclohexyl ester] | 4.71 |  | 
8 | CCCCCCNC(=O)O[C@@H]1C[C@H](C)CC[C@H]1C(C)C [BIO1271, Hexyl-carbamic acid (1R,2S,5R)-2-isopropyl-5-methyl-cyclohexyl ester] | 4.72 |  | 
9 | CNC(=O)O[C@H]1C[C@@H](C)CC[C@@H]1C(C)C [BIO1301, Methyl-carbamic acid (1S,2R,5S)-2-isopropyl-5-methyl-cyclohexyl ester] | 4.19 |  | 
10 | COCCNC(=O)O[C@@H]1C[C@H](C)CC[C@H]1C(C)C [BIO1336, (2-Methoxy-ethyl)-carbamic acid (1R,2S,5R)-2-isopropyl-5-methyl-cyclohexyl ester] | 4.45 |  | 
11 | COCCCNC(=O)O[C@H]1C[C@@H](C)CC[C@@H]1C(C)C [BIO1339, (3-Methoxy-propyl)-carbamic acid (1S,2R,5S)-2-isopropyl-5-methyl-cyclohexyl ester] | 4.27 |  | 
12 | CCNC(=O)O[C@H]1C[C@@H](C)CC[C@@H]1C(C)C [BIO1378, Ethyl-carbamic acid (1S,2R,5S)-2-isopropyl-5-methyl-cyclohexyl ester] | 4.53 |  | 
13 | COCCCNC(=O)O[C@H]1C[C@H](C)CC[C@H]1C(C)C [BIO1460, (3-Methoxy-propyl)-carbamic acid (1S,2S,5R)-2-isopropyl-5-methyl-cyclohexyl ester] | 5.14 |  | 
14 | CCNC(=O)O[C@H]1C[C@H](C)CC[C@H]1C(C)C [BIO1461, Ethyl-carbamic acid (1S,2S,5R)-2-isopropyl-5-methyl-cyclohexyl ester] | 4.54 |  | 
15 | CCN(CC)C(=O)O[C@@H]1C[C@H](C)CC[C@H]1C(C)C [BIO1553, Diethyl-carbamic acid (1R,2S,5R)-2-isopropyl-5-methyl-cyclohexyl ester] | 4.97 |  | 
16 | CC(C)[C@@H]1CC[C@@H](C)C[C@H]1OC(=O)NCc1ccc2c(c1)OCO2 [BIO1571, Benzo[1,3]dioxol-5-ylmethyl-carbamic acid (1R,2S,5R)-2-isopropyl-5-methyl-cyclohexyl ester] |  |  | 5.26
17 | CC(C)[C@@H]1CC[C@@H](C)C[C@H]1OC(=O)Nc1ccccc1 [BIO1580, Phenyl-carbamic acid (1R,2S,5R)-2-isopropyl-5-methyl-cyclohexyl ester] | 5.16 |  | 
18 | CCOc1ccccc1NC(=O)O[C@@H]1C[C@H](C)CC[C@H]1C(C)C [BIO1632, (2-Ethoxy-phenyl)-carbamic acid (1R,2S,5R)-2-isopropyl-5-methyl-cyclohexyl ester] | 5.49 |  | 
19 | CC(=O)c1ccccc1NC(=O)O[C@@H]1C[C@H](C)CC[C@H]1C(C)C [BIO1633, (2-Acetyl-phenyl)-carbamic acid (1R,2S,5R)-2-isopropyl-5-methyl-cyclohexyl ester] | 4.60 |  | 
20 | CC(C)[C@@H]1CC[C@@H](C)C[C@H]1OC(=O)NCCCCCCO [BIO1662, (6-Hydroxy-hexyl)-carbamic acid (1R,2S,5R)-2-isopropyl-5-methyl-cyclohexyl ester] | 4.29 |  | 
21 | CC(C)[C@@H]1CC[C@@H](C)C[C@H]1OC(=O)NCc1ccccc1 [BIO1695, Benzyl-carbamic acid (1R,2S,5R)-2-isopropyl-5-methyl-cyclohexyl ester] | 5.11 |  | 
22 | CC(C)[C@@H]1CC[C@@H](C)C[C@H]1OC(=O)NCC1CCCCC1 [BIO1699, Cyclohexylmethyl-carbamic acid (1R,2S,5R)-2-isopropyl-5-methyl-cyclohexyl ester] | 5.85 |  | 
23 | CC(C)[C@@H]1CC[C@@H](C)C[C@H]1OC(=O)NCC1CCCO1 (stereo partly drawn) [BIO1702, (Tetrahydro-furan-2-ylmethyl)-carbamic acid (1R,2S,5R)-2-isopropyl-5-methyl-cyclohexyl ester] | 4.83 |  | 
24 | OC[C@H]1O[C@@H](Oc2ccc(O)cc2)[C@H](O)[C@@H](O)[C@@H]1O [beta-Arbutin, reference compound] | 4.17 |  | 
